The nature of data set [1]: Safety on oral administration to cattle (Example 12). As to conditions: bovine, in vivo, selenium, cobalt and fenbendazole in combination (preparation of Example 3), read-out: oral administration with no adverse effect observed. On the procedure:
The safety of the composition of Example 3 on oral administration to cattle was investigated: • A total of 16 cattle were treated-orally with the preparation of Example 3. Eight Friesian heifers weighing between 330 and 420 kg were treated with the preparation at the recommended dose of 7.5 ml per 100 kg body weight. Four Friesian cattle weighing between 930 and 990 kg were treated orally with the preparation at five times the recommended dose i.e. 37.5 ml per 100 kg. A further four Friesan cattle weighing between 870 and 1030 kg were treated orally with the preparation at ten times the recommended dose i.e. […].
The cattle were observed daily for a period of 21 days following treatment for any signs at adverse effect.

The conditions of data set [2]: per os, sheep; cited from earlier work.
A short description of data set [3]: Toxicity in lambs, daily clinical examinations after oral treatment (Example 2). As to conditions: sheep, in vivo, per os, given together with fenbendazole as developmental formulation, read-out: oral dose levels tolerated, no signs of drug toxicity. On the procedure: Animals: Twenty, six to eight month old lambs were made available for the purpose of this investigation. The lambs were allocated to five groups (n = 4) on the basis of mean faecal egg counts determined on each of three successive days.
Prior to treatment, all lambs were weighed. Lambs were maintained at grass as a single group for the duration of the study.
• Group 1: Untreated controls • Group 2: Treated with 5 mg/kg fenbendazole as Panacur 2.5 % Suspension (Commercial batch, "Panacur", is a Trade Mark) Composition of Panacur 2.5 % : as described in Example 1 with the omission of the selenium and cobalt components. • Group 3: Treated with 5 mg/kg fenbendazole as a developmental formulation (see below) • Group 4: Treated with 25 mg/kg fenbendazole as a developmental formulation (see below) • Group 5: Treated with 50 mg/kg fenbendazole as a developmental formulation (see below)
Groups 4 and 5 thus received five and ten times respectively the recommended dose of fenbendazole and cobalt, and 12.5 and 25 times respectively the recommended dose of selenium.
Clinical examinations were carried out on all lambs daily post treatment for the duration of the study.

As for `COC(=O)Nc1nc2ccc(Sc3ccccc3)cc2[nH]1` [Fenbendazole, 5-Phenyl-thio-2-benzimidazolecarbamic acid methylester, reference compound], the NOAEL at 504 h in data set [1] is not above 75 mg/kg.

For orientation: LD50 means the dose at which mortality reaches 50%. With `[Se]` [elemental selenium], the LD50 in data set [2] is reported as 0.5 mg/kg. The NOAEL at 504 h in data set [1] was not below 20 mg/kg. Further, the NOAEL in data set [3] is not below 2 mg/kg.

Source of the values: EP0090368A1, “Anthelmintic preparations” (priority 1982, dated 1983).
